Laboratory results: BindingDB's records for doi:10.1021/cb700200w (Novartis, 2008)

target: T1, Aurora kinase A (Homo sapiens, UniProt O14965); test: Aurora Kinase SPA Assay; conditions: not given
T1 sequence (O14965 whole entry): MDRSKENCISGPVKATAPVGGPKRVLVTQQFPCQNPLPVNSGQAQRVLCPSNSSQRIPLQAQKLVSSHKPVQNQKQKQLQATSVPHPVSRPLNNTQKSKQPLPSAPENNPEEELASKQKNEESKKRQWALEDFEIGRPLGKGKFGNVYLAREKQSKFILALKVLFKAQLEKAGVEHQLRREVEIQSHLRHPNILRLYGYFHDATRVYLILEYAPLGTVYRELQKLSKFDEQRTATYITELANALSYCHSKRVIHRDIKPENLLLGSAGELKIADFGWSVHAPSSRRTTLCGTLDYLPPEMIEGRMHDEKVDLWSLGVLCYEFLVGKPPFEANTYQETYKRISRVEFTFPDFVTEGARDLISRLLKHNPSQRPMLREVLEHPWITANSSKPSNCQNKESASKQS
Protocol: The biochemical activity of compounds was determined by incubation with Aurora A and substrates in the presence ATP/[gamma-33P] ATP. After incubation, the reaction was stopped and the phosphorylated substrate was separated from nonincorporated radioactive ATP using SPA beads (Amersham Pharmacia Biotech), counted using TopCount (Packard) to measure substrate-incorporated phosphate.

Q: With `CN1CCN(Cc2ccc(Nc3ncc(C#N)s3)nc2)CC1` [2-({5-[(4-methylpiperazin-1-yl)methyl]pyridin-2-yl}amino)-1,3-thiazole-5-carbonitrile] as the compound, how does the IC50 read?
A: 3.8 µM

Q: `Brc1cnc(Nc2cccnc2)s1` [5-bromo-N-(pyridin-3-yl)-1,3-thiazol-2-amine] was tested. Which IC50 did it give?
A: 3.6 µM

Q: How did the IC50 turn out when `CNC(=O)N1CCN(Cc2ccc(Nc3ncc(C#N)s3)nc2)CC1` [4-({6-[(5-cyano-1,3-thiazol-2-yl)amino]pyridin-3-yl}methyl)-N-methylpiperazine-1-carboxamide] was run?
A: 0.88 µM

Q: For `N#Cc1cnc(Nc2ccc(CN3CCOCC3)cn2)s1` [2-{[5-(morpholin-4-ylmethyl)pyridin-2-yl]amino}-1,3-thiazole-5-carbonitrile], which IC50 is on record?
A: 1.4 µM

Q: How did the IC50 turn out when `O=C(Nc1ncc(Br)s1)c1ccccc1` [N-(5-bromo-1,3-thiazol-2-yl)benzamide] was run?
A: 5.5 µM

Q: With `COc1ccccc1Nc1ncc(Br)s1` [5-bromo-N-(2-methoxyphenyl)-1,3-thiazol-2-amine] as the compound, how does the IC50 read?
A: 2.7 µM

Q: How did the IC50 turn out when `Nc1ncc(Br)s1` [5-bromo-1,3-thiazol-2-amine] was run?
A: > 10 µM

Q: For `CNC(=O)c1cccc(Nc2ncc(Br)s2)c1` [3-[(5-bromo-1,3-thiazol-2-yl)amino]-N-methylbenzamide], which IC50 is on record?
A: 0.74 µM

Q: With `FC(F)(F)c1ccccc1Nc1ncc(Br)s1` [5-bromo-N-[2-(trifluoromethyl)phenyl]-1,3-thiazol-2-amine] as the compound, how does the IC50 read?
A: > 10 µM

Q: For `Brc1cnc(NCCc2ccccc2)s1` [5-bromo-N-(2-phenylethyl)-1,3-thiazol-2-amine], which IC50 is on record?
A: > 10 µM

same assay, conditions: pH 7; 22 °C

Q: For `Fc1ccc(Nc2ncc(Br)s2)cc1` [5-bromo-N-(4-fluorophenyl)-1,3-thiazol-2-amine], which IC50 is on record?
A: 0.4 µM

Q: Which IC50 does the source give for `O=C(O)c1ccc(Nc2ncc(Br)s2)cc1` [4-[(5-bromo-1,3-thiazol-2-yl)amino]benzoic acid] here?
A: 0.079 µM

Q: `Fc1ccc(Nc2ncc(Cl)s2)cc1` [5-chloro-N-(4-fluorophenyl)-1,3-thiazol-2-amine] was tested. Which IC50 did it give?
A: 1.1 µM

Q: With `COCC(C)NC(=O)c1ccc(Nc2ncc(Br)s2)cc1` (configuration not stated) [4-[(5-bromo-1,3-thiazol-2-yl)amino]-N-(1-methoxypropan-2-yl)benzamide] as the compound, how does the IC50 read?
A: 0.33 µM

Q: `COc1ccc(Nc2ncc(Br)s2)cc1` [5-bromo-N-(4-methoxyphenyl)-1,3-thiazol-2-amine] was tested. Which IC50 did it give?
A: 1.7 µM

Q: For `N#Cc1ccc(Nc2ncc(Br)s2)cc1` [4-[(5-bromo-1,3-thiazol-2-yl)amino]benzonitrile], which IC50 is on record?
A: 2.1 µM

Q: For `Brc1cnc(Nc2ccc(Oc3ccncc3)cc2)s1` [5-bromo-N-[4-(pyridin-4-yloxy)phenyl]-1,3-thiazol-2-amine], which IC50 is on record?
A: 0.9 µM

Q: How did the IC50 turn out when `Brc1ccc(Nc2ncc(Br)s2)cc1` [5-bromo-N-(4-bromophenyl)-1,3-thiazol-2-amine] was run?
A: 2.9 µM

Q: Which IC50 does the source give for `CN(c1ccc(F)cc1)c1ncc(Br)s1` [5-bromo-N-(4-fluorophenyl)-N-methyl-1,3-thiazol-2-amine] here?
A: > 10 µM

target: Cyclin-dependent kinase/G2/mitotic-specific cyclin- 1 (Homo sapiens, UniProt P06493); test: Z-LYTE Enzymatic Kinase Assay; conditions: not given
Protocol: Enzyme activity was assayed using Z-LYTE Enzymatic Kinase Assay format (Invitrogen Corp., Carlsbad, CA) in the SelectScreen Kinase Profiling Service (Invitrogen Discovery Sciences, Madison, WI).

Cyclin-dependent kinase/G2/mitotic-specific cyclin- 1, sequence (P06493 whole entry): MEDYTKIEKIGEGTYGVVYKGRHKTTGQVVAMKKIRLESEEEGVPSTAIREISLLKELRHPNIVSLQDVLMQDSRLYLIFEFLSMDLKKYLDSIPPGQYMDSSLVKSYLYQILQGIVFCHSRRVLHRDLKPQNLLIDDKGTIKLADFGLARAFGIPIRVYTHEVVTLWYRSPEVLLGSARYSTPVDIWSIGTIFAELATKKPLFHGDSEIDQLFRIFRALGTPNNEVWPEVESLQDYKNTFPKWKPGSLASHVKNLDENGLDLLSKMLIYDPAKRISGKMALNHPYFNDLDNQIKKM
Cyclin-dependent kinase/G2/mitotic-specific cyclin- 1, sequence (P14635 whole entry, further chain): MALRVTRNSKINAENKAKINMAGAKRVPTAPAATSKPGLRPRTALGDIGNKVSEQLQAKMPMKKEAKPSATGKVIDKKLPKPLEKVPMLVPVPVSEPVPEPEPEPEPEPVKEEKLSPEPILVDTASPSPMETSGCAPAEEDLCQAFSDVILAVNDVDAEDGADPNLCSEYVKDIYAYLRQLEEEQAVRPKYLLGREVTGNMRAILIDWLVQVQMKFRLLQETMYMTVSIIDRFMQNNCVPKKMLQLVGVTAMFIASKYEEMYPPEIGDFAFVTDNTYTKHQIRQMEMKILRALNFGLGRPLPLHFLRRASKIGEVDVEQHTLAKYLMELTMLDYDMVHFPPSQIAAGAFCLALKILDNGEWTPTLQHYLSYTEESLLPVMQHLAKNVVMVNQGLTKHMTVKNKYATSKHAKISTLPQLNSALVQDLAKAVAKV

Q: How did the IC50 turn out when `CNC(=O)c1ccc(Nc2ncc(Br)s2)cc1` [4-[(5-bromo-1,3-thiazol-2-yl)amino]-N-methylbenzamide] was run?
A: 4.27 µM

Q: For `Fc1ccc(Nc2ncc(Br)s2)cc1` [5-bromo-N-(4-fluorophenyl)-1,3-thiazol-2-amine], which IC50 is on record?
A: > 10 µM

Q: For `O=C(O)c1ccc(Nc2ncc(Br)s2)cc1` [4-[(5-bromo-1,3-thiazol-2-yl)amino]benzoic acid], which IC50 is on record?
A: > 10 µM
